{
  "source": "patent US20200024278A1",
  "about": "“COMPOSITION COMPRISING ANTIBIOTIC COMPOUND AND AN HETEROCYCLIC COMPOUND AND THEIR USE IN PREVENTING OR TREATING BACTERIAL INFECTIONS” (MUTABILIS, priority 2016, published 2020)",
  "key": {"SAU 29213": {"tested_on": "SAU 29213", "assay": "MIC, broth microdilution (CLSI), substance alone or ATB combined with compound at 4 or 8 μg/mL", "format": "cell-based, S. aureus", "details": "Staphylococcus aureus", "in_short": "(§1)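 CLSI broth microdilution in cation-adjusted Mueller-Hinton broth, 5·10^5 CFU/mL log-phase inoculum, 16-20 h at 35 °C in ambient air. Fosfomycin assays supplemented with 25 μg/ml glucose-6-phosphate.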"}, "PAE UFR90 [1]": {"tested_on": "PAE UFR90", "format": "cell-based, P. aeruginosa", "details": "tntbc: Too numerous to be counted", "protocol": "(§2) Method 4: Determination of the Spontaneous Mutation Frequency of the Compounds Alone and Combined with Antibiotics.\n(§3) Bacterial isolates (Table 3) were grown overnight at 35° C. on TSA plates (Becton-Dickinson and Company) in ambient air. After 24 h of incubation, isolated bacterial colonies were added to cation-adjusted Mueller-Hinton broth (ca-MHB; Becton-Dickinson and Company) and cultured for approximately 6 h at 35° C. The pre-culture was stopped once bacteria have reached an OD600 nm of 0.5 for 200 μL. The bacterial suspension was centrifuged at 4000 rpm for 20 min. The supernatant was then discarded and the bacterial pellet was dissolved in ca-MHB to obtain 10^9 to 10^10 CFU/mL. Assays including Fosfomycin were supplemented with 25 μg/ml of Glucose-6-phosphate. 100 μL of the adjusted bacterial suspension were spread on agar plates containing different concentrations of the compounds of the present invention alone or combined with an antibacterial (Table 1). The plates were incubated for 24-48 h at 35° C. in ambient air. CFU were numerated on each agar plate containing compound. The number of resistant colonies obtained was divided by the starting inoculum to give the frequency of spontaneous resistance for a given incubation time (24 and 48 h)."}, "PAE UFR48 [2]": {"tested_on": "PAE UFR48", "format": "cell-based, P. aeruginosa", "details": "tntbc: Too numerous to be counted", "protocol": "as §2, §3"}, "PAE 27853": {"tested_on": "PAE 27853", "format": "cell-based, P. aeruginosa", "details": "tntbc: Too numerous to be counted", "protocol": "as §2, §3"}, "SPN 49619": {"tested_on": "SPN 49619", "assay": "MIC, broth microdilution (CLSI), substance alone or ATB combined with compound at 4 or 8 μg/mL", "format": "cell-based, S. pneumoniae", "details": "Streptococcus pneumoniae, SPN 49619", "in_short": "as §1"}, "PAE UFR90 [3]": {"tested_on": "PAE UFR90", "assay": "MIC, broth microdilution (CLSI), substance alone or ATB combined with compound at 4 or 8 μg/mL", "format": "cell-based, P. aeruginosa", "details": "PAE UFR90", "in_short": "as §1"}, "PAE UFR48 [4]": {"tested_on": "PAE UFR48", "assay": "MIC, broth microdilution (CLSI), substance alone or ATB combined with compound at 4 or 8 μg/mL", "format": "cell-based, P. aeruginosa", "details": "Pseudomonas aeruginosa, antibiotic alone; PAE UFR48; read-out: MIC ATB alone", "in_short": "as §1"}, "PAE 105250": {"tested_on": "PAE 105250", "assay": "MIC, broth microdilution (CLSI), substance alone or ATB combined with compound at 4 or 8 μg/mL", "format": "cell-based, P. aeruginosa", "details": "Pseudomonas aeruginosa; antibiotic alone; PAE 105250; read-out: MIC ATB alone", "in_short": "as §1"}, "ECL P99": {"tested_on": "ECL P99", "assay": "MIC, broth microdilution (CLSI), substance alone or ATB combined with compound at 4 or 8 μg/mL", "format": "cell-based, E. cloacae", "details": "Enterobacter cloacae, ECL P99", "in_short": "as §1"}, "ECO 190317": {"tested_on": "ECO 190317", "assay": "MIC, broth microdilution (CLSI), substance alone or ATB combined with compound at 4 or 8 μg/mL", "format": "cell-based, E. coli", "details": "Escherichia coli, ECO 190317", "in_short": "as §1"}, "ECO UFR39": {"tested_on": "ECO UFR39", "assay": "MIC, broth microdilution (CLSI), substance alone or ATB combined with compound at 4 or 8 μg/mL", "format": "cell-based, E. coli", "details": "Escherichia coli, ECO UFR39", "in_short": "as §1"}, "KPN 6299": {"tested_on": "KPN 6299", "assay": "MIC, broth microdilution (CLSI), substance alone or ATB combined with compound at 4 or 8 μg/mL", "format": "cell-based, K. pneumoniae", "details": "Klebsiella pneumoniae, antibiotic alone, read-out: MIC ATB alone", "in_short": "as §1"}, "KPN UFR42": {"tested_on": "KPN UFR42", "assay": "MIC, broth microdilution (CLSI), substance alone or ATB combined with compound at 4 or 8 μg/mL", "format": "cell-based, K. pneumoniae", "details": "Klebsiella pneumoniae; antibiotic alone; KPN UFR42; read-out: MIC ATB alone", "in_short": "as §1"}, "KPN UFR68": {"tested_on": "KPN UFR68", "assay": "MIC, broth microdilution (CLSI), substance alone or ATB combined with compound at 4 or 8 μg/mL", "format": "cell-based, K. pneumoniae", "details": "Klebsiella pneumoniae, substance alone", "in_short": "as §1"}, "KPN BAA-1898": {"tested_on": "KPN BAA-1898", "assay": "MIC, broth microdilution (CLSI), substance alone or ATB combined with compound at 4 or 8 μg/mL", "format": "cell-based, K. pneumoniae", "details": "Klebsiella pneumoniae, BAA1898, KPN BAA-1898", "in_short": "as §1"}, "[5]": {"details": "antibiotic alone, read-out: MIC ATB alone"}},
  "note": "Where two headings read alike, the source gives them in different places.",
  "data": [
    {"smiles": "C[C@@H]1O[C@@H]1P(=O)(O)O", "note": "[FOS, Fosfomycin, reference compound]", "values": [
      {"measurement": "MIC", "setting": "SAU 29213; antibiotic alone, SAU 29213, read-out: MIC ATB alone", "value": 2, "unit": "µg/mL"},
      {"measurement": "MIC", "setting": "SAU 29213; substance alone, SAU 29213 (MSSA 29213), read-out: MIC", "value": 2, "unit": "µg/mL"},
      {"measurement": "Frequency of spontaneous resistance", "setting": "PAE UFR90 [1]; single agent at 4.MIC", "value": "3.0E−07"},
      {"measurement": "Frequency of spontaneous resistance", "setting": "PAE UFR90 [1]; single agent at 8.MIC", "value": "2.0E−07"},
      {"measurement": "Frequency of spontaneous resistance", "setting": "PAE UFR48 [2]; single agent at 4.MIC", "value": "1.1E−06"},
      {"measurement": "Frequency of spontaneous resistance", "setting": "PAE UFR48 [2]; single agent at 8.MIC", "value": "1.1E−06"},
      {"measurement": "Frequency of spontaneous resistance", "setting": "PAE 27853; single agent at 4.MIC", "value": "1.2E−06"},
      {"measurement": "Frequency of spontaneous resistance", "setting": "PAE 27853; single agent at 8.MIC", "value": "1.4E−06"},
      {"measurement": "MIC", "setting": "SPN 49619; [5]", "value": 32, "unit": "µg/mL"},
      {"measurement": "MIC", "setting": "SPN 49619; substance alone, read-out: MIC", "value": 32, "unit": "µg/mL"},
      {"measurement": "MIC", "setting": "PAE UFR90 [3]; Pseudomonas aeruginosa, antibiotic alone, read-out: MIC ATB alone", "value": 8, "unit": "µg/mL"},
      {"measurement": "MIC", "setting": "PAE UFR90 [3]; Pseudomonas aeruginosa, substance alone, read-out: MIC", "value": 16, "unit": "µg/mL"},
      {"measurement": "MIC", "setting": "PAE UFR90 [3]; substance alone", "value": 8, "unit": "µg/mL"},
      {"measurement": "MIC", "setting": "PAE UFR48 [4]", "value": 16, "unit": "µg/mL"},
      {"measurement": "MIC", "setting": "PAE 105250", "value": 256, "unit": "µg/mL"},
      {"measurement": "MIC", "setting": "ECL P99; [5]", "value": "> 1020", "unit": "µg/mL"},
      {"measurement": "MIC", "setting": "ECL P99; substance alone, read-out: MIC", "value": "> 1020", "unit": "µg/mL"},
      {"measurement": "MIC", "setting": "ECO 190317; [5]", "value": 0.5, "unit": "µg/mL"},
      {"measurement": "MIC", "setting": "ECO 190317; substance alone, read-out: MIC", "value": 0.5, "unit": "µg/mL"},
      {"measurement": "MIC", "setting": "ECO UFR39; [5]", "value": 4, "unit": "µg/mL"},
      {"measurement": "MIC", "setting": "ECO UFR39; substance alone, read-out: MIC", "value": 4, "unit": "µg/mL"},
      {"measurement": "MIC", "setting": "KPN 6299", "value": "> 128", "unit": "µg/mL"},
      {"measurement": "MIC", "setting": "KPN UFR42", "value": 128, "unit": "µg/mL"},
      {"measurement": "MIC", "setting": "KPN UFR68", "value": 32, "unit": "µg/mL"},
      {"measurement": "MIC", "setting": "KPN BAA-1898; [5]", "value": 64, "unit": "µg/mL"},
      {"measurement": "MIC", "setting": "KPN BAA-1898; substance alone, read-out: MIC", "value": 64, "unit": "µg/mL"}
    ]}
  ]
}
